The structures appear in SMILES notation.

The target of the test is T1, human M4 muscarinic acetylcholine receptor (Homo sapiens, UniProt P08173).
T1 construct: expressed in transfected cells; host or cells: CHO-K1
T1 sequence (P08173 1-479): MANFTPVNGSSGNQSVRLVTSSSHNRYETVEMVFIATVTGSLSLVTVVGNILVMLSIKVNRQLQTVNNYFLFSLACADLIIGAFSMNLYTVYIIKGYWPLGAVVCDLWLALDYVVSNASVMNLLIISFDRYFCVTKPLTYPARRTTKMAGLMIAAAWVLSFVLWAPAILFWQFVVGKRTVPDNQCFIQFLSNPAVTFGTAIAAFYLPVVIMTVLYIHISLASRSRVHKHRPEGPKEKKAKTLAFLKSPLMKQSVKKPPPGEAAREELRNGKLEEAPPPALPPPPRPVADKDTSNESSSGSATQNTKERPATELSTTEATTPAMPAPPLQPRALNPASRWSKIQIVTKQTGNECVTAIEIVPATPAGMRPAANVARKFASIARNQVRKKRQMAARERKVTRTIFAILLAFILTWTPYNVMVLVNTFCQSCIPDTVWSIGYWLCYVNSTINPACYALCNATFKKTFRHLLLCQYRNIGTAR
Put plainly: human FLIPR-based M4 PAM assay (Ca2+ mobilization, CHO-K1 cells with human M4 receptor and Gαqi5). The test is classed as cell-based. The following applies: acetylcholine at 20% of maximum response, read-out: M4 PAM IP. Put shortly:
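Calcium-mobilization (FLIPR) readout in dye-loaded CHO-K1 cells co-expressing human M4 receptor and Gαqi5. Potentiation measured against acetylcholine at a concentration giving 20% of maximal response, with an optional 70% addition; the reported value is the curve inflection point from a 4-parameter logistic fit.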
As for `Cc1cc2c(nc1N1CCC(Oc3cnc4c(c3)oc(=O)n4C)CC1)CNC2=O` [Example 136, 3-methyl-6-((1-(3-methyl-5-oxo-6,7-dihydro-5H-pyrrolo[3,4-b]pyridin-2-yl)piperidin-4-yl)oxy)oxazolo[4,5-b]pyridin-2(3H)-one], the EC50 was determined as 3470 nM.
Turning to `Cc1cc2c(nc1N1CCC(Oc3ccc4c(c3)CN(C(=O)OC(C)(C)C)CC4)CC1)CNC2=O` [Example 137, tert-butyl 7-((1-(3-methyl-5-oxo-6,7-dihydro-5H-pyrrolo[3,4-b]pyridin-2-yl)piperidin-4-yl)oxy)-3,4-dihydroisoquinoline-2(1H)-carboxylate], the EC50 was 515 nM.
Next, `Cc1cc2c(nc1N1CCC(Oc3ccc4c(c3)C(=O)N(C)CC4)CC1)CNC2=O` [Example 138, 2-methyl-7-((1-(3-methyl-5-oxo-6,7-dihydro-5H-pyrrolo[3,4-b]pyridin-2-yl)piperidin-4-yl)oxy)-3,4-dihydroisoquinolin-1(2H)-one]: 390 nM; `Cc1cc2c(nc1N1CCC(Oc3cnn(C)c3)CC1)CNC2=O` [Example 139, 3-methyl-2-(4-((1-methyl-1H-pyrazol-4-yl)oxy)piperidin-1-yl)-6,7-dihydro-5H-pyrrolo[3,4-b]pyridin-5-one]: 106 nM.
Next, `Cc1cc2c(nc1N1CCC(Oc3ccc4c(c3)C(=O)CO4)CC1)CNC2=O` [Example 139A, 3-methyl-2-(4-((3-oxo-2,3-dihydrobenzofuran-5-yl)oxy)piperidin-1-yl)-6,7-dihydro-5H-pyrrolo[3,4-b]pyridin-5-one]: 628 nM; `Cc1cc2c(nc1N1CCC(Oc3ccn4ccnc4c3)CC1)CNC2=O` [Example 140, 2-(4-(imidazo[1,2-a]pyridin-7-yloxy)piperidin-1-yl)-3-methyl-6,7-dihydro-5H-pyrrolo[3,4-b]pyridin-5-one]: 4710 nM; `Cc1cc2c(nc1N1CCC(Oc3cn[nH]c3)CC1)CNC2=O` [Example 142, 2-(4-((1H-pyrazol-4-yl)oxy)piperidin-1-yl)-3-methyl-6,7-dihydro-5H-pyrrolo[3,4-b]pyridin-5-one]: 270 nM.
Regarding `Cc1cc2c(nc1N1CCC(Oc3ccc(O[C@@H](C)CO)nc3)CC1)CNC2=O` [Example 143A, (S)-2-(4-((6-((1-hydroxypropan-2-yl)oxy)pyridin-3-yl)oxy)piperidin-1-yl)-3-methyl-6,7-dihydro-5H-pyrrolo[3,4-b]pyridin-5-one], the EC50 came to 101 nM.
Then `Cc1cc2c(nc1N1CCC(Oc3ccc(O[C@H](C)CO)nc3)CC1)CNC2=O` [Example 143B, (R)-2-(4-((6-((1-hydroxypropan-2-yl)oxy)pyridin-3-yl)oxy)piperidin-1-yl)-3-methyl-6,7-dihydro-5H-pyrrolo[3,4-b]pyridin-5-one], with 117 nM; and `Cc1cc2c(nc1N1CCC(Oc3ccc4c(c3)CCNC4)CC1)CNC2=O` [Example 144, 3-Methyl-2-(4-((1,2,3,4-tetrahydroisoquinolin-6-yl)oxy)piperidin-1-yl)-6,7-dihydro-5H-pyrrolo[3,4-b]pyridin-5-one], with 316 nM; and `Cc1cc2c(nc1N1CCC(Oc3cnc4c(c3)NCCO4)CC1)CNC2=O` [Example 145, 2-(4-((2,3-dihydro-1H-pyrido[2,3-b][1,4]oxazin-7-yl)oxy)piperidin-1-yl)-3-methyl-6,7-dihydro-5H-pyrrolo[3,4-b]pyridin-5-one], with 2160 nM.
As for `Cc1cc2c(nc1N1CCC(Oc3ccc4c(c3)CNCC4)CC1)CNC2=O` [Example 146, 3-methyl-2-(4-((1,2,3,4-tetrahydroisoquinolin-7-yl)oxy)piperidin-1-yl)-6,7-dihydro-5H-pyrrolo[3,4-b]pyridin-5-one], the EC50 was 286 nM.
On to `Cc1cc2c(nc1N1CCC(Oc3ccc4c(c3)CNC4)CC1)CNC2=O` [Example 147, 2-(4-(isoindolin-5-yloxy)piperidin-1-yl)-3-methyl-6,7-dihydro-5H-pyrrolo[3,4-b]pyridin-5-one], for which the EC50 was 313 nM.
Next, `Cc1cc2c(nc1N1CCC(Oc3ccc4c(c3)OCCN4)CC1)CNC2=O` [Example 148, 2-(4-((3,4-dihydro-2H-benzo[b][1,4]oxazin-7-yl)oxy)piperidin-1-yl)-3-methyl-6,7-dihydro-5H-pyrrolo[3,4-b]pyridin-5-one]: 31 nM; `Cc1nc2cc(OC3CCN(c4nc5c(cc4C)C(=O)NC5)CC3)ccc2[nH]1` [Example 149, 3-methyl-2-(4-((2-methyl-1H-benzo[d]imidazol-5-yl)oxy)piperidin-1-yl)-6,7-dihydro-5H-pyrrolo[3,4-b]pyridin-5-one]: 1000 nM.
Next, `Cc1cc2c(nc1N1CCC(Oc3ccc(CO)cc3)CC1)CNC2=O` [Example 151, 2-(4-(4-(hydroxymethyl)phen-oxy)piperidin-1-yl)-3-methyl-6,7-dihydro-5H-pyrrolo[3,4-b]pyridin-5-one]: 32 nM; `Cc1cc2c(nc1N1CCC(Oc3ccnc(CO)c3)CC1)CNC2=O` [Example 152, 2-(4-((2-(hydroxymethyl)pyridin-4-yl)oxy)piperidin-1-yl)-3-methyl-6,7-dihydro-5H-pyrrolo[3,4-b]pyridin-5-one]: 1150 nM; `Cc1cc2c(nc1N1CCC(Oc3ccc4c(c3)c(C)nn4CCO)CC1)CNC2=O` [Example 153, 2-(4-((1-(2-hydroxyethyl)-3-methyl-1H-indazol-5-yl)oxy)piperidin-1-yl)-3-methyl-6,7-dihydro-5H-pyrrolo[3,4-b]pyridin-5-one]: 528 nM.
For `Cc1cc2c(nc1N1CCC(Oc3ccc4c(c3)OC[C@H]4CCO)CC1)CNC2=O` [Example 154, (S)-2-(4-((3-(2-hydroxyethyl)-2,3-dihydrobenzofuran-6-yl)oxy)piperidin-1-yl)-3-methyl-6,7-dihydro-5H-pyrrolo[3,4-b]pyridin-5-one], the EC50 amounted to 128 nM.
`Cc1cc2c(nc1N1CCC(Oc3ccc(CO)nc3)CC1)CNC2=O` [Example 155, 2-(4-((6-(hydroxymethyl)pyridin-3-yl)oxy)piperidin-1-yl)-3-methyl-6,7-dihydro-5H-pyrrolo[3,4-b]pyridin-5-one]: the EC50 turned out to be 117 nM.
For the molecule `Cc1cc2c(nc1N1CCC(Oc3cncc(CO)c3)CC1)CNC2=O` [Example 156, 2-(4-((5-(hydroxymethyl)pyridin-3-yl)oxy)piperidin-1-yl)-3-methyl-6,7-dihydro-5H-pyrrolo[3,4-b]pyridin-5-one], the EC50 was found to be 1220 nM.
Take `Cc1cc2c(nc1N1CCC(Oc3ccc4c(c3)CC[C@@H]4CCO)CC1)CNC2=O` [Example 157A, (R)-2-(4-((1-(2-hydroxyethyl)-2,3-dihydro-1H-inden-5-yl)oxy)piperidin-1-yl)-3-methyl-6,7-dihydro-5H-pyrrolo[3,4-b]pyridin-5-one]: the EC50 turned out to be 93 nM.
Next, `Cc1cc2c(nc1N1CCC(Oc3ccc4c(c3)CC[C@H]4CCO)CC1)CNC2=O` [Example 157B, (S)-2-(4-((1-(2-hydroxyethyl)-2,3-dihydro-1H-inden-5-yl)oxy)piperidin-1-yl)-3-methyl-6,7-dihydro-5H-pyrrolo[3,4-b]pyridin-5-one]: 144 nM; `Cc1cc2c(nc1N1CCC(Oc3ccc4c(c3)COC4)CC1)CNC2=O` [Example 159, 2-[4-(1,3-Dihydro-2-benzofuran-5-yloxy)piperidin-1-yl]-3-methyl-6,7-dihydro-5H-pyrrolo[3,4-b]pyridin-5-one]: 28 nM.
`COC(=O)c1cc2c(nc1N1CCC(Oc3ccc(OC)nc3)CC1)CNC2=O` [Example 160, methyl 2-(4-((6-methoxypyridin-3-yl)oxy)piperidin-1-yl)-5-oxo-6,7-dihydro-5H-pyrrolo[3,4-b]pyridine-3-carboxylate]: the EC50 is 231 nM.
In the case of `Cc1cc2c(nc1N1CCC(OCc3cccnc3)CC1)CNC2=O` [Example 161, 3-Methyl-2-(4-(pyridin-3-ylmethoxy)piperidin-1-yl)-6,7-dihydro-5H-pyrrolo[3,4-b]pyridin-5-one], the EC50 was found to be 1520 nM.
Turning to `Cc1c(N2CC[C@@H](OCC3(C)CC3)[C@@H](F)C2)nc2c(c1C)C(=O)NC2` [Example 161A, 2-((3S,4R)-3-Fluoro-4-((1-methylcyclopropyl)methoxy)piperidin-1-yl)-3,4-dimethyl-6,7-dihydro-5H-pyrrolo[3,4-b]pyridin-5-one], the EC50 stood at 21 nM.
As for `Cc1nc2ccc(O[C@@H]3CCN(c4nc5c(cc4C)C(=O)NC5)C[C@@H]3F)cc2o1` [Example 162, 2-((3S,4R)-3-fluoro-4-((2-methylbenzo[d]oxazol-6-yl)oxy)piperidin-1-yl)-3-methyl-6,7-dihydro-5H-pyrrolo[3,4-b]pyridin-5-one], the EC50 was found to be 51 nM.
Then `CO[C@@H]1Cc2ccc(OC3CCN(c4nc5c(cc4C)C(=O)NC5)CC3)cc2C1` [Example 162A, (R)-2-(4-((2-methoxy-2,3-dihydro-1H-inden-5-yl)oxy)piperidin-1-yl)-3-methyl-6,7-dihydro-5H-pyrrolo[3,4-b]pyridin-5-one], with 59 nM; and `CO[C@H]1Cc2ccc(OC3CCN(c4nc5c(cc4C)C(=O)NC5)CC3)cc2C1` [Example 162B, (S)-2-(4-((2-methoxy-2,3-dihydro-1H-inden-5-yl)oxy)piperidin-1-yl)-3-methyl-6,7-dihydro-5H-pyrrolo[3,4-b]pyridin-5-one], with 47 nM.
